Experimental data reported in patent publication EP0837870B1, “SYNTHETIC MODIFICATION TO SPINOSYN COMPOUNDS” (Dow AgroSciences LLC, priority 1995, dated 1997).
Counter-ions that a name gives are not always drawn.

What was measured:
Format in all cases: in vivo
[1] = test system: tobacco budworm (Heliothis virescens); assay: Activity against tobacco budworm (TBW), sprayed diet cups with eggs; details: for mortality at 400 µg/mL: Heliothis virescens, 144 h
Procedure: (§1) In conducting evaluations of insecticidal activity, each test compound was formulated as a 400 ppm solution, and this solution was then diluted with water to give lesser concentrations. The 400 ppm solution was prepared by combining 19.2 mL of .05% solution of Tween 20 (polyoxyethylene (20) sorbitan monolaurate) in water with a solution of 8 mg of the compound in .8 mL of acetone/EtOH (9/1).
Activity against tobacco budworm (Heliothis virescens) was evaluated as follows. A general purpose lepidoptera artificial diet was diluted to half strength with a 5% non nutritive agar. 8 mL of this diet material was dispensed into each one ounce diet cup. One hour prior to treatment 18 to 20 eggs were dispensed onto the diet surface. The cups were then sprayed with formulated material through a flat-fan nozzle. […] Treated cups were air dried prior to sealing with plastic caps. The cups were held for 6 days at room temperature. Activity was then rated based on the total number of live and dead larvae, and on the size of live larvae.

[2] = test system: two spotted spider mite (Tetranychus urticae); assay: Activity against two spotted spider mite (TSSM), sprayed infested squash plants; details: RATE 400 (ppm), three days after treatment; for mortality at 400 µg/mL: Tetranychus urticae, 72 h; for % MORTALITY: 4320 min
Procedure: as §1
Activity against cotton aphid (Aphis gossypii) and two spotted spider mite (Tetranychus urticae) was evaluated as follows. Golden crookneck squash plants were grown to the expanded cotyledon stage (about 6 to 8 days). The plants were infested with cotton aphids and two spotted spider mites 16 to 24 hours before application of the test material by transfer of infested foliage cut from a stock colony. Immediately prior to spray application of the test material the transfer foliage is removed from the squash plants. The test is run using concentrations of 400 ppm and 50 ppm. The plants are sprayed with test solution using an atomizing sprayer at 17 psi. Both surfaces of the leaves are covered until runoff, and then allowed to dry. Activity of each compound was determined three days after treatment. Activity was rated as a percent based on the mites/aphids present in plants sprayed with solvent alone.

[3] = test system: Stomoxys calcitrans (stable fly); assay: Adult stable fly test, serum-saturated dental wick; details: readings at 24 and 48 hours, which one is reported is not stated; for Percentage of ASF killed at 10 ppm: 10 ppm in bovine serum; for Percentage of ASF killed at 100 ppm: 100 ppm in bovine serum
Procedure: (§2) The compound to be evaluated was dissolved in 1 part acetone/1 part ethanol to provide a stock solution of the compound at a concentration of 5,000 ppm; this solution was shaken for 15 minutes on a sonicator. Portions of the stock solution were placed in 15 ml test tubes, and portions of bovine serum were added to provide the desired dilution of the test compound. A dental wick was placed in each test tube and the serum allowed to saturate the wick.
For the adult stable fly test, the saturated wick was placed on a filter paper in a petri dish, and approximately 10 chilled live, hungry stable flies were placed on the center of the dish bottom. The dish was covered and allowed to incubate at 27°C and 60% relative humidity for 48 hours. Mortality readings were made at each of 24 and 48 hours, and adjusted for any mortality in the vehicle control to determine percent efficacy against adult stable fly.

[4] = test system: Phormia regina (blow fly); assay: Blow fly larvae test, serum-saturated dental wick; details: 24 and 48 hours, which one is reported is not stated; for Percentage of LBF killed at 100 ppm: 100 ppm in bovine serum; for Percentage of LBF killed at 10 ppm: 10 ppm in bovine serum
Procedure: as §2
For the blow fly test, approximately 20 blow fly larvae were placed onto the top center of the saturated dental wick, and the test tube was plugged with cotton and incubated at 27°C and 70% humidity for 24 and 48 hours. Larval mortality counts were then made, and adjusted for any mortality in the vehicle control, to determine percent efficacy against blow fly.

[5] = test system: beet armyworm (Spodoptera exiqua); assay: Activity against beet armyworm (BAW), sprayed diet cups with eggs
Procedure: as §1
Activity against beet armyworm (Spodoptera exiqua) was evaluated as follows. The test is run using concentrations of 400 ppm and 50 ppm. A general purpose lepidoptera artificial diet was diluted to half strength with a 5% non nutritive agar. 8 mL of this diet material was dispensed into one ounce diet cups. One hour prior to treatment, 35 to 40 eggs were dispensed onto the diet surface. The cups were then sprayed with formulated material through a flat-fan nozzle. Treated cups were air dried prior to sealing with plastic caps. The cups were held for 6 days at room temperature. Activity was then rated based on the total number of live and dead larvae, and on the size of live larvae.

[6] = test system: peanut root knot nematode (Meloidogyne arenaria); assay: Activity against peanut root knot nematode, sprayed sand with cucumber seeds; details: NEMA, RATE 400 (ppm), 10 to 12 days
Procedure: as §1
Activity against peanut root knot nematode (Meloidogyne arenaria) was evaluated as follows. Five untreated cucumber seeds are placed into the bottom of a clear one ounce cup, 20 g of clean white sand is added, and the cups were sprayed while rotating on a pedestal allowing 1.0 mL of a 400 ppm solution to be deposited on the sand. To each cup was dispensed 2.5 to 3.0 mL of deionized water containing 300 to 500 nematodes. The cups were held for 10 to 12 days in an environmental growth chamber at a temperature of 76 to 85°F and ambient humidity of 50 to 60%. After 10 to 12 days the cups were evaluated by inverting the cup and observing nematode mortality and feeding damage to the cucumber plants.

[7] = RATE 64 (unit not given), 8640 min

Compound | Percentage of ASF killed at 10 ppm [3] | % MORTALITY ([1]; RATE 400 (ppm), 6 days) | Percentage of LBF killed at 10 ppm [4] | also measured
CC[C@H]1CCC[C@H](O[C@H]2CC[C@H](N(C)C)[C@@H](C)O2)[C@@H](C)C(=O)C2=C[C@H]3[C@@H]4C[C@H](O[C@@H]5O[C@@H](C)[C@H](OC)[C@@H](OC)[C@H]5OC)C[C@H]4CC[C@H]3[C@@H]2CC(=O)O1 [Example F6, 5,6-Dihydro Spinosyn A] | 100% | – | – | % MORTALITY [1, 7]: 100%; mortality at 400 µg/mL [2]: 100%; Percentage of LBF killed at 100 ppm [4]: 100%
CCC1CCCC(OC2CCC(N(C)C)C(C)O2)C(C)C(=O)C2=CC3C4CC(OC5OC(C)C(OC)C(OC)C5OC)CC4[C@]4(C)O[C@@H]4C3C2CC(=O)O1 (stereo partly drawn) [Example F8b, (5R,6S)-Epoxy Spinosyn D] | 100% | 100% | – | % MORTALITY [2]: 90%; Percentage of LBF killed at 100 ppm [4]: 100%
CC[C@H]1CCC[C@H](O[C@H]2CC[C@H](N(C)C)[C@@H](C)O2)[C@@H](C)C(=O)C2=C[C@H]3[C@@H]4C[C@H](O[C@@H]5O[C@@H](C)[C@H](OC)[C@@H](OC)[C@H]5OC)C[C@H]4[C@@H](O)[C@@H](O)[C@H]3[C@@H]2CC(=O)O1 [Example F2, (5S,6R)-5,6-Dihydroxy-5,6-dihydro Spinosyn A] | <50% | – | <50% | mortality at 400 µg/mL ([1]; RATE 400 (ppm), 6 days): 100%
CC[C@H]1CCC[C@H](O[C@H]2CC[C@H](N(C)C)[C@@H](C)O2)[C@@H](C)C(=O)[C@H]2C[C@@H]3[C@@H](CC[C@@H]4C[C@@H](O[C@@H]5O[C@@H](C)[C@H](OC)[C@@H](OC)[C@H]5OC)C[C@H]43)[C@@H]2CC(=O)O1 [Example D1, (14S)-5,6,13,14-Tetrahydro Spinosyn A] | 100% | – | <50% | % MORTALITY ([1]; RATE 80 (unit not given), 8640 min): 90%
CC[C@H]1CCC[C@H](O[C@H]2CC[C@H](N(C)C)[C@@H](C)O2)[C@@H](C)C(=O)C2=C[C@H]3[C@@H]4C[C@H](O[C@@H]5O[C@@H](C)[C@H](OC)[C@@H](OC)[C@H]5OC)C[C@H]4[C@H]4OC(=O)O[C@H]4[C@H]3[C@@H]2CC(=O)O1 [Example F3, (5S,6R)-Spinosyn A carbonate] | <50% | – | <50% | % MORTALITY [1, 7]: 24%
CC[C@H]1CCC[C@H](O[C@H]2CC[C@H](N(C)C)[C@@H](C)O2)[C@@H](C)C(=O)C2=C[C@H]3[C@@H]4C[C@H](O[C@@H]5O[C@@H](C)[C@H](OC)[C@@H](OC)[C@H]5OC)C[C@H]4[C@@H](Br)[C@H](OC(C)=O)[C@H]3[C@@H]2CC(=O)O1 [Example F4b, (5R,6R)-5-Acetoxy-6-bromo-5,6-dihydro Spinosyn A] | 60% | – | < 50% | mortality at 400 µg/mL ([1]; RATE 400 (ppm), 6 days): 100%
(5R,6R)-5,6-dibromo-4''-keto Spinosyn A [Example F11a] | – | – | – | % MORTALITY ([5]; RATE 56 (unit not given)): 80%
CCC1CCCC(OC2CCC(N(C)C)C(C)O2)C(C)C(=O)C2=CC3C4CC(OC5OC(C)C(OC)C(OC)C5OC)CC4[C@H]4O[C@H]4C3C2CC(=O)O1 (stereo partly drawn) [Example F7a, (5S,6R)-5,6-Epoxy Spinosyn A] | 100% | 100% | 90% | % MORTALITY [2]: 90%
CCC1CCCC(O)C(C)C(=O)C2=CC3C4CC(OC5OC(C)C(OC)C(OC)C5OC)CC4C4OC4C3C2CC(=O)O1 [Example E3, (5S,6R)-5,6-Epoxy Spinosyn A 17-Psa] | – | – | – | % MORTALITY [6]: 100%
CC[C@H]1CCC[C@H](O)[C@@H](C)C(=O)C2=C[C@H]3[C@@H]4C[C@H](O[C@@H]5O[C@@H](C)[C@H](OC)[C@@H](OC)[C@H]5OC)C[C@H]4[C@@H](Br)[C@H](OCCO)[C@H]3[C@@H]2CC(=O)O1 [Example E1, (5R,6R)-5-(2-Hydroxyethoxy)-6-bromo Spinosyn A 17-Psa] | – | – | <50% | mortality at 400 µg/mL ([1]; RATE 400 (ppm), 6 days): 100%; mortality at 400 µg/mL [2]: 60%
CCC1CCCC(OC2CCC(N(C)C)C(C)O2)C(C)C(=O)C2=CC3C4CC(OC5OC(C)C(OC)C(OC)C5OC)CC4[C@@H](Br)[C@H](OCCO)C3C2CC(=O)O1 (stereo partly drawn) [Example F1, (5R,6R)-5-(2-Hydroxyethoxy)-6-bromo Spinosyn A] | 60% | 100% | 90% | –
CC[C@H]1CCC[C@H](O[C@H]2CC[C@H](N(C)C)[C@@H](C)O2)[C@@H](C)C(=O)C2=C[C@H]3[C@@H]4C[C@H](O[C@@H]5O[C@@H](C)[C@H](OC)[C@@H](OC)[C@H]5OC)C[C@H]4CC[C@H]3[C@@H]2CC(=O)O1 [Example F23, 5,6-Dihydro Spinosyn A Hemiglutarate salt] | – | 100% | – | % MORTALITY [2]: 100%; Percentage of ASF killed at 100 ppm [3]: 100%
CC[C@H]1CCC[C@H](O[C@H]2CC[C@H](N(C)C)[C@@H](C)O2)[C@@H](C)C(=O)C2=C[C@H]3[C@@H]4C[C@H](O[C@@H]5O[C@@H](C)[C@H](OC)[C@@H](OC)[C@H]5OC)C[C@H]4[C@H](Br)[C@@H](OC(C)=O)[C@H]3[C@@H]2CC(=O)O1 [Example F4a, (5S,6S)-5-Acetoxy-6-bromo Spinosyn A] | 90% | – | <50% | mortality at 400 µg/mL ([1]; RATE 400 (ppm), 6 days): 100%
5,6-Dihydro Spinosyn A 17-Psa [Example F20] | – | – | – | % MORTALITY ([5]; RATE 400 (ppm), 6 days): 100%
CCC1CCCC(OC2CCC(N(C)C)C(C)O2)C(C)C(=O)C2=CC3C4CC(OC5OC(C)C(OC)C(OC)C5OC)CC4[C@@H]4O[C@@H]4C3C2CC(=O)O1 (stereo partly drawn) [Example F7b, (5R,6S)-Epoxy Spinosyn A] | 100% | 100% | 100% | –
CCCOC1C(OC)C(C)OC(OC2CC3CCC4C5CC(=O)OC(CC)CCCC(OC6CCC(N(C)C)C(C)O6)C(C)C(=O)C5=CC4C3C2)C1OC.CCCOC1C(OC)C(C)OC(OC2CC3CCC4C5CC(=O)OC(CC)CCCC(OC6CCC(N(C)C)C(C)O6)C(C)C(=O)C5=CC4C3C2)C1OC.O=C(O)CCCC(=O)O (stereo not drawn) [Example A6, 5,6-Dihydro-3'-O-n-propyl Spinosyn J Hemiglutarate salt] | – | 100% | – | % MORTALITY [2]: 100%; Percentage of ASF killed at 100 ppm [3]: 100%
